Measured values as given in ChEMBL document CHEMBL4312011, “Synthesis and biological evaluation of triterpenoid thiazoles derived from betulonic acid, dihydrobetulonic acid, and ursonic acid” (Eur J Med Chem, 2020).
≈ marks a conversion by molar mass, not a printed value. Calls of active or inactive are those of the source. The calls are words filed in the database; no cut-off is given here.

Assays:
[1] = Microsomal stability in human liver microsomes assessed as parent compound remaining at 2 uM incubated for 30 mins by RF-MS analysis; assay type: ADME, Microsome; settings: read-out: Stability
[2] = Stability in human plasma assessed as parent compound remaining at 2 uM incubated for 60 mins by RF-MS analysis; assay type: ADME, cell-free; settings: read-out: Stability
[3] = Stability in human plasma assessed as parent compound remaining at 2 uM incubated for 15 mins by RF-MS analysis; assay type: ADME, cell-free; settings: read-out: Stability
[4] = Cytotoxicity against human K562-TAX cells incubated for 72 hrs by MTS assay; assay type: functional, cell-based
BJ = test: Cytotoxicity against human BJ cells incubated for 72 hrs by MTS assay; assay type: cell-based
A549 = test: Cytotoxicity against human A549 cells incubated for 72 hrs by MTS assay; assay type: functional, cell-based; settings: A549, 72 h
U2OS = test: Cytotoxicity against human U2OS cells incubated for 72 hrs by MTS assay; assay type: functional, cell-based
[5] = Chemical stability of compound in PBS buffer assessed as parent compound remaining at 2 uM at pH 7.4 and 37 degC incubated for 15 mins by RF-MS analysis; assay type: physicochemical; settings: read-out: Stability
HCT-116 [6] = test: Cytotoxicity against p53 knockout human HCT116 cells incubated for 72 hrs by MTS assay; assay type: functional, cell-based; settings: HCT-116, 72 h
[7] = Microsomal stability in human liver microsomes assessed as parent compound remaining at 2 uM incubated for 60 mins by RF-MS analysis; assay type: ADME, Microsome; settings: read-out: Stability
[8] = Stability in human plasma assessed as parent compound remaining at 2 uM incubated for 120 mins by RF-MS analysis; assay type: ADME, cell-free; settings: read-out: Stability
HCT-116 [9] = test: Cytotoxicity against human HCT116 cells incubated for 72 hrs by MTS assay; assay type: functional, cell-based; settings: HCT-116, 72 h
[10] = Chemical stability of compound in PBS buffer assessed as parent compound remaining at 2 uM at pH 7.4 and 37 degC incubated for 30 mins by RF-MS analysis; assay type: physicochemical; settings: read-out: Stability
MRC5 = test: Cytotoxicity against human MRC5 cells incubated for 72 hrs by MTS assay; assay type: cell-based; settings: MRC5, 72 h
CCRF-CEM [11] = test: Cytotoxicity against human CCRF-CEM cells incubated for 72 hrs by MTS assay; assay type: functional, cell-based
K562 = test: Cytotoxicity against human K562 cells incubated for 72 hrs by MTS assay; assay type: functional, cell-based; settings: K562, 72 h
[12] = Stability in human plasma assessed as parent compound remaining at 2 uM incubated for 30 mins by RF-MS analysis; assay type: ADME, cell-free; settings: read-out: Stability
[13] = Microsomal stability in human liver microsomes assessed as parent compound remaining at 2 uM incubated for 15 mins by RF-MS analysis; assay type: ADME, Microsome; settings: read-out: Stability
[14] = Chemical stability of compound in PBS buffer assessed as parent compound remaining at 2 uM at pH 7.4 and 37 degC incubated for 120 mins by RF-MS analysis; assay type: physicochemical; settings: read-out: Stability
[15] = Cytotoxicity against human CEM-DNR-bulk cells incubated for 72 hrs by MTS assay; assay type: functional, cell-based
[16] = Chemical stability of compound in PBS buffer assessed as parent compound remaining at 2 uM at pH 7.4 and 37 degC incubated for 60 mins by RF-MS analysis; assay type: physicochemical; settings: read-out: Stability
CCRF-CEM [17] = test: Induction of apoptosis in human CCRF-CEM cells assessed as late apoptotic cells at 5 times IC50 concentration measured after 24 hrs by AnnexinV-FITC/propidium iodide staining based flow cytometry analysis (reference value: 0.1 %); assay type: functional
CCRF-CEM [18] = test: Induction of apoptosis in human CCRF-CEM cells assessed as early apoptotic cells at 5 times IC50 concentration measured after 24 hrs by AnnexinV-FITC/propidium iodide staining based flow cytometry analysis (reference value: 2.8 %); assay type: functional
[19] = Permeability of compound in PBS buffer assessed as permeability coefficient at pH 7.4 incubated for 18 hrs by PAMPA based RF-MS analysis; assay type: ADME; settings: pH 7.4, 18 h
CCRF-CEM [20] = test: Induction of apoptosis in human CCRF-CEM cells assessed as increase in caspase 3/7 activity using Ac-DEVD-AMC as substrate at 5 times IC50 concentration measured after 24 hrs by fluorescence assay; assay type: functional, cell-based
CCRF-CEM [21] = test: Induction of apoptosis in human CCRF-CEM cells assessed as necrotic cells at 5 times IC50 concentration measured after 24 hrs by AnnexinV-FITC/propidium iodide staining based flow cytometry analysis (reference value: 0.1 %); assay type: functional
[22] = Solubility of compound in 5 % DMSO in water by HPLC-MS analysis; assay type: physicochemical
[23] = Protein binding in human plasma at 10 uM measured after 4 hrs by rapid equilibrium dialysis; assay type: ADME, cell-free; settings: read-out: PPB (converted)
CCRF-CEM [24] = test: Cell cycle arrest in human CCRF-CEM cells assessed as increase in G2/M phase accumulation at 5 times IC50 measured after 24 hrs by propidium iodide/RNase staining based flow cytometry analysis; assay type: functional
CCRF-CEM [25] = test: Induction of apoptosis in human CCRF-CEM cells assessed as increase in BAX expression at 5 times IC50 concentration measured after 24 hrs by Western blot analysis; assay type: functional, cell-based
CCRF-CEM [26] = test: Induction of apoptosis in human CCRF-CEM cells assessed as viable cells at 5 times IC50 concentration measured after 24 hrs by AnnexinV-FITC/propidium iodide staining based flow cytometry analysis (reference value: 97 %); assay type: functional
[27] = Solubility of compound in 10 % DMSO in water by HPLC-MS analysis; assay type: physicochemical
CCRF-CEM [28] = test: Cell cycle arrest in human CCRF-CEM cells assessed as decrease in proportion of cells in S phase at 5 times IC50 measured after 24 hrs by propidium iodide/RNase staining based flow cytometry analysis; assay type: functional
CCRF-CEM [29] = test: Induction of apoptosis in human CCRF-CEM cells assessed as activation of procaspase 8 at 5 times IC50 concentration measured after 24 hrs by Western blot analysis; assay type: functional, cell-based
[30] = Solubility of compound in 0.5 % DMSO in water by HPLC-MS analysis; assay type: physicochemical
CCRF-CEM [31] = test: Induction of apoptosis in human CCRF-CEM cells assessed as decrease in Bcl-2 expression at 5 times IC50 concentration measured after 24 hrs by Western blot analysis; assay type: functional, cell-based
CCRF-CEM [32] = test: Induction of mitochondrial membrane depolarization in human CCRF-CEM cells at 5 times IC50 measured after 24 hrs by JC-1 staining based flow cytometry analysis (reference value: 8.4 %); assay type: functional

Row | SMILES | remaining at 0.5 h, 2 µM [1] | remaining at 1 h, 2 µM [2] | remaining at 0.25 h, 2 µM [3] | IC50 [4] | IC50 (BJ) | IC50 (A549) | IC50 (U2OS) | remaining at 0.25 h, 2 µM [5] | IC50 (HCT-116 [6]) | remaining at 1 h, 2 µM [7] | remaining at 2 h, 2 µM [8] | IC50 (HCT-116 [9]) | remaining at 0.5 h, 2 µM [10] | IC50 (MRC5) | IC50 (CCRF-CEM [11]) | IC50 (K562) | remaining at 0.5 h, 2 µM [12] | remaining at 0.25 h, 2 µM [13] | remaining at 2 h, 2 µM [14] | IC50 [15] | also measured
1 | C[C@H]1[C@H](C)CC[C@]2(C(=O)O)CC[C@]3(C)C(=CC[C@@H]4[C@@]5(C)CC(SC#N)C(=O)C(C)(C)[C@@H]5CC[C@]43C)[C@H]12 (some centres undefined) | 54.9% | 77.4% | 99.2% | 29 µM | > 50 µM | 42.5 µM | 33.1 µM | 90.3% | 32.3 µM | 14.9% | 36.9% | 32.1 µM | 49.3% | 39.8 µM | 4.7 µM | 34.7 µM | 100% | 61% | 15.3% | 28.2 µM | remaining at 1 h, 2 µM [16]: 37.1%
2 | C=C(C)[C@@H]1CC[C@]2(C(=O)O)CC[C@]3(C)[C@H](CC[C@@H]4[C@@]5(C)CC(SC#N)C(=O)C(C)(C)[C@@H]5CC[C@]43C)[C@@H]12 (some centres undefined) | 86.4% | 35.7% | 99% | 16.6 µM | 19.8 µM | 21.2 µM | 20.2 µM | 99.9% | 11.9 µM | 56.8% | 7.6% | 3.3 µM | 67.5% | 18.7 µM | 2.4 µM | 28.5 µM | 75.9% | 90.1% | 69.8% | 6.8 µM | remaining at 1 h, 2 µM [16]: 54.2%
3 | CC1(C)CC[C@]2(C(=O)O)CC[C@]3(C)C(=CC[C@@H]4[C@@]5(C)Cc6sc(N)nc6C(C)(C)[C@@H]5CC[C@]43C)[C@@H]2C1 | 90% | 99.4% | 99.4% | 18.9 µM | > 50 µM | 47.7 µM | 28.8 µM | 91.2% | 33.3 µM | 87.1% | 99.1% | 31 µM | 77% | > 50 µM | 5.2 µM | > 50 µM | 99.2% | 96.8% | 74.9% | 19.8 µM | Activity (CCRF-CEM [17]): 0.5%; Activity (CCRF-CEM [18]): 12%; log(permeability) [19]: -7.16; Activity (CCRF-CEM [20]): Active; Activity (CCRF-CEM [21]): 0.1%; solubility [22]: 45 µM (≈ 23 µg/mL); fraction unbound at 4 h, 10 µM [23]: 0.011; Activity (CCRF-CEM [24]): Active; Activity (CCRF-CEM [25]): Active; Activity (CCRF-CEM [26]): 87.4%; solubility [27]: 91 µM (≈ 46.5 µg/mL); Activity (CCRF-CEM [28]): Active; Activity (CCRF-CEM [29]): Active; solubility [30]: 27 µM (≈ 13.8 µg/mL); Activity (CCRF-CEM [31]): Active; Activity (CCRF-CEM [32]): 23.4%; remaining at 1 h, 2 µM [16]: 74.8%
